Results as given in patent publication US9221765B2, “Inhibition and dispersion of bacterial biofilms with benzimidazole derivatives” (North Carolina State University, priority 2009, dated 2015).
Structures can show the parent of a compound that is named as a salt. Where two headings read alike, the source gives them in different places.

Tests used:
[1] = system: S. epidermidis; assay: Inhibition of S. epidermidis biofilm formation (crystal violet); type: cell-based, Staphylococcus epidermidis; conditions: for IC50: concentration that inhibits 50% biofilm development; for ability to inhibit biofilm formation: 100 μM (highest concentration tested)
Description: (§1) A dose-response study was then initiated in which both the IC50 and EC50 value of each compound towards the bacterial strains were determined (Table 1). Here, IC50 is defined as the concentration of compound that inhibits 50% biofilm development while EC50 is defined as the concentration of compound that disperses 50% of a pre-formed biofilm.
(§2) Procedure to Determine the Inhibitory Effect of Test Compounds on E. faecium, MRSA, S. epidermidis, PAO1 and MDRAB Biofilm Formation:
(§3) Inhibition assays were performed by taking an overnight culture of bacterial strain and subculturing it at an OD600 of 0.01 into the necessary media (brain heart infusion for E. faecium, tryptic soy broth with a 0.5% glucose supplement (TSBG) for MRSA, Luria-Bertani (LB) media for MDRAB, Luria-Bertani media without NaCl (LBNS) for PAO1 and tryptic soy broth with a 0.5% glucose supplement and a 3.0% NaCl supplement (TGN) for S. epidermidis. Stock solutions of predetermined concentrations of the test compound were then made in the necessary media. These stock solutions were aliquoted (100 μL) into the wells of the 96-well PVC microtiter plate. Sample plates were then wrapped in GLAD Press n′ Seal® followed by an incubation under stationary conditions for 24 h at 37° C. After incubation, the media was discarded from the wells and the plates were washed thoroughly with water. Plates were then stained with 100 μL of 0.1% solution of crystal violet (CV) and then incubated at ambient temperature for 30 min. Plates were washed with water again and the remaining stain was solubilized with 200 μL of 95% ethanol. A sample of 125 μL of solubilized CV stain from each well was transferred to the corresponding wells of a polystyrene microtiter dish. Biofilm inhibition was quantitated by measuring the OD540 of each well in which a negative control lane wherein no biofilm was formed served as a background and was subtracted out.
as §3, with “2-(2-amino-1H-benzo[d]imidazol-6-ylcarbamoyl)-3,4,5,6-tetrachlorobenzoic acid hydrochloride” for “test compound”, “media. Samples were then doped with 10.0 μM FeSO4 with samples with no test compound to examine effects of 10.0 μM FeSO4 on biofilm formation.” for “media.”

[2] = system: S. epidermidis; assay: Dispersion of preformed S. epidermidis biofilm; type: cell-based, Staphylococcus epidermidis; conditions: concentration that disperses 50% of a pre-formed biofilm
Description: as §1
(§4) Procedure to Determine the Dispersal Effect of Test Compounds on E. faecium, MRSA and S. epidermidis Preformed Biofilms:
(§5) Dispersion assays were performed by taking an overnight culture of bacterial strain and subculturing it at an OD600 of 0.01 into the necessary media (brain heart infusion for E. faecium, tryptic soy broth with a 0.5% glucose supplement (TSBG) for MRSA and tryptic soy broth with a 0.5% glucose supplement and a 3.0% NaCl supplement (TGN) for S. epidermidis. The resulting bacterial suspension was aliquoted (100 μL) into the wells of a 96-well PVC microtiter plate. Plates were then wrapped in GLAD Press n′ Seal® followed by an incubation under stationary conditions at ambient temperature to establish the biofilms. After 24 h, the media was discarded from the wells and the plates were washed thoroughly with water. Stock solutions of predetermined concentrations of the test compound were then made in the necessary media. These stock solutions were aliquoted (100 μL) into the wells of the 96-well PVC microtiter plate with the established biofilms. Media alone was added to a subset of the wells to serve as a control. Sample Plates were then incubated for 24 h at 37° C. After incubation, the media was discarded from the wells and the plates were washed thoroughly with water. Plates were then stained with 100 μL of 0.1% solution of crystal violet (CV) and then incubated at ambient temperature for 30 min. Plates were washed with water again and the remaining stain was solubilized with 200 μL of 95% ethanol. A sample of 125 μL of solubilized CV stain from each well was transferred to the corresponding wells of a polystyrene microtiter dish. Biofilm dispersion was quantitated by measuring the OD540 of each well in which a negative control lane wherein no biofilm was formed served as a background and was subtracted out.

[3] = system: MRSA; assay: Dispersion of preformed MRSA biofilm; type: cell-based, Staphylococcus aureus; conditions: concentration that disperses 50% of a pre-formed biofilm
Description: as §1, §4, §5

[4] = system: MRSA; assay: Inhibition of MRSA biofilm formation (crystal violet); type: cell-based, Staphylococcus aureus; conditions: for IC50: concentration that inhibits 50% biofilm development; for ability to inhibit biofilm formation: 100 μM (highest concentration tested)
Description: as §1, §2, §3
as §3, with “2-(2-amino-1H-benzo[d]imidazol-6-ylcarbamoyl)-3,4,5,6-tetrachlorobenzoic acid hydrochloride” for “test compound”, “media. Samples were then doped with 10.0 μM FeSO4 with samples with no test compound to examine effects of 10.0 μM FeSO4 on biofilm formation.” for “media.”

[5] = system: vancomycin-resistant Enterococcus faecium (VRE); assay: Inhibition of VRE (E. faecium) biofilm formation (crystal violet); type: cell-based; conditions: for ability to inhibit biofilm formation: 100 μM (highest concentration tested)
Description: as §1, §2, §3
as §3, with “2-(2-amino-1H-benzo[d]imidazol-6-ylcarbamoyl)-3,4,5,6-tetrachlorobenzoic acid hydrochloride” for “test compound”, “media. Samples were then doped with 10.0 μM FeSO4 with samples with no test compound to examine effects of 10.0 μM FeSO4 on biofilm formation.” for “media.”

[6] = system: vancomycin-resistant Enterococcus faecium (VRE); assay: Dispersion of preformed VRE (E. faecium) biofilm; type: cell-based; conditions: concentration that disperses 50% of a pre-formed biofilm
Description: as §1, §4, §5

[7] = Divalent zinc binding via 1H NMR spectroscopy; conditions: 0, 0.5, 1.0 equivalents ZnCl2; DMSO
Description: Given this Zn(II)-dependence, the ability of 3 to bind zinc directly was determined to ascertain if the mechanism was potentially occurring via a Zn(II)-binding mechanism. To answer this question, an ^1H NMR binding experiment was performed in which the chemical shifts of 3 were measured in the presence of 0 equivalents, 0.5 equivalents, and 1.0 equivalents ZnCl2. […] As a control, the same experiment was performed with FeSO4.
Procedure to Determine the Divalent Zinc Binding Effects of Test Compounds via ^1H NMR Spectroscopy:
^1H NMR Spectra were obtained of the test compounds in DMSO on a 400 MHz NMR in the absence and in the presence of one equivalent of ZnCl2. 2-(2-amino-1H-benzo[d]imidazol-5-ylcarbamoyl)-3,4,5,6-tetrachlorobenzoic acid hydrochloride was tested at a 228 mM. 2,3,4,5-tetrachloro-6-(phenylcarbamoyl)benzoic acid was tested at 275 mM. 1H-benzo[d]imidazol-2-amine hydrochloride was tested at 649 mM.

[8] = system: MRSA; assay: Inhibition of MRSA biofilm formation (crystal violet); type: cell-based, Staphylococcus aureus; conditions: FeSO4 alone, no test compound
[9] = system: E. faecium, MRSA and S. epidermidis; assay: Mitigating effects of zinc on biofilm formation inhibition; type: cell-based; conditions: 200.0 μM ZnCl2 alone, no test compound
Excerpt: Next, Zn(II) homeostasis was examined. Zn(II) has been implicated in the pathogenesis of Gram-positive bacterial infections and may be an important regulator of biofilm formation (Conrady, D. G.; Brescia, C. C.; Horii, K.; Weiss, A. A.; Hassett, D. J.; Herr, A. B. Proceedings of the National Academy of Sciences of the United States of America 2008, 105, 19456-19461).
Procedure to Determine the Mitigating Effects of Zinc on E. faecium, MRSA and S. epidermidis Biofilm Formation Inhibition Induced by 2-(2-Amino-1H-Benzo[d]Imidazol-6-Ylcarbamoyl)-3,4,5,6-Tetrachlorobenzoic Acid Hydrochloride:
as §3, with “50.0 μM 2-(2-amino-1H-benzo[d]imidazol-6-ylcarbamoyl)-3,4,5,6-tetrachlorobenzoic acid hydrochloride” for “predetermined concentrations of the test compound”, “media. Samples were then doped with 25.0, 50.0, 75.0, 100.0, 150.0 and 200.0 μM ZnCl2 with controls in which no test compound was added to examine effects of 200.0 μM ZnCl2 on biofilm formation.” for “media.”

[10] = VRE, concentration that inhibits 50% biofilm development, read-out: IC50

Row | Structure (SMILES) | IC50 [1] [µM] | EC50 [2] [µM] | EC50 ([3]; read-out: EC50 (converted)) [µM] | IC50 ([4]; read-out: IC50) [µM] | IC50 [5, 10] [µM] | EC50 ([6]; read-out: EC50 (converted)) [µM] | also measured
1 | Nc1nc2ccc(NC(=O)[C@H]3[C@@H](C(=O)O)C4(Cl)C(Cl)=C(Cl)C3(Cl)C4(Cl)Cl)cc2[nH]1 (relative stereo) [Compound 4] | 1.9 ± 0.4 | 19 | 6.6 | 1.5 ± 0.4 | 210 ± 35 | 280 | –
2 | Nc1nc2ccc(NC(=O)[C@@H]3C4C=CC(C4)[C@@H]3C(=O)O)cc2[nH]1 (stereo partly drawn) [Compound 5, (2S,3R)-3-(2-amino-1H-benzo[d]imidazol-6-ylcarbamoyl)bicyclo[2.2.1]hept-5-ene-2-carboxylic acid hydrochloride] | – | – | – | – | – | – | IC50 ([1]; Staphylococcus epidermidis): 4.1 ± 2 µM; EC50 ([2]; Staphylococcus epidermidis): 45 µM; EC50 ([3]; Staphylococcus aureus): 63 µM; IC50 ([4]; Staphylococcus aureus): 16 ± 2.9 µM; IC50 [5]: 63 ± 9.1 µM; EC50 [6]: 107 µM
3 | CC(C)(CC(=O)O)CC(=O)Nc1ccc2nc(N)[nH]c2c1 [Compound 7] | 240 ± 20 | 260 | 205 | 69 ± 2.7 | 0.9 ± 0.3 | 94 | –
4 | Nc1nc2ccc(NC(=O)c3cccc4cccc(C(=O)O)c34)cc2[nH]1 [Compound 9, 8-(2-amino-1H-benzo[d]imidazol-6-ylcarbamoyl)-1-naphthoic acid hydrochloride] | – | – | – | – | – | – | IC50 ([1]; Staphylococcus epidermidis): 6.2 ± 1.2 µM; EC50 ([2]; Staphylococcus epidermidis): 30 µM; EC50 ([3]; Staphylococcus aureus): > 300 µM; IC50 ([4]; Staphylococcus aureus): > 300 µM; IC50 [5]: 0.9 ± 0.4 µM; EC50 [6]: 6.3 µM
5 | Nc1nc2ccc(N3C(=O)CC4(CCC4)CC3=O)cc2[nH]1 [Compound 14] | 170 ± 14 | 180 | 48 | 42 ± 2.4 | 1.9 ± 0.5 | 230 | –
6 | Nc1nc2ccc(N3C(=O)c4cccc5cccc(c45)C3=O)cc2[nH]1 [Compound 15] | 24 ± 6.3 | 81 | > 300 | > 300 | 69 ± 10 | 110 | –
7 | Nc1nc2ccc(N3C(=O)[C@@H]4[C@H](C3=O)C3(Cl)C(Cl)=C(Cl)C4(Cl)C3(Cl)Cl)cc2[nH]1 [Compound 16] | 1.5 ± 0.5 | 33 | 9.5 | 5.7 ± 0.5 | 7.4 ± 1.7 | 31 | –
8 | Nc1nc2ccccc2[nH]1 [Compound 17, reference compound] | – | – | – | – | – | – | ability to inhibit biofilm formation [1]: Neither compound was able to inhibit; ability to inhibit biofilm formation [4]: Neither compound was able to inhibit; zinc binding, change of 1H NMR signals [7]: no change; ability to inhibit biofilm formation ([5]; VRE): Neither compound was able to inhibit
9 | O=C(O)c1c(Cl)c(Cl)c(Cl)c(Cl)c1C(=O)Nc1ccccc1 [Compound 18, reference compound] | – | – | – | – | – | – | ability to inhibit biofilm formation [1]: Neither compound was able to inhibit; ability to inhibit biofilm formation [4]: Neither compound was able to inhibit; zinc binding, change of 1H NMR signals [7]: no change; ability to inhibit biofilm formation ([5]; VRE): Neither compound was able to inhibit
10 | O=S(=O)([O-])[O-].[Fe+2] [FeSO4, reference compound] | – | – | – | – | – | – | increase of biofilm formation (biofilm mass) ([1]; FeSO4 alone, no test compound): 1.25 times; increase of biofilm formation (biofilm mass) [8]: 1.28 times; increase of biofilm formation (biofilm mass) ([5]; E. faecium, FeSO4 alone, no test compound): 1.37 times
11 | [Cl-].[Cl-].[Zn+2] [ZnCl2, reference compound] | – | – | – | – | – | – | effect on biofilm formation [9]: no effect on biofilm formation
